According to patent US9951025B2, “Halogenopyrazoles as inhibitors of thrombin” (VERSEON CORPORATION, priority 2013, dated 2018):
pIC50: −log10 of the molar value.

Molecular target: T1, Human thrombin (Homo sapiens, UniProt P00734)
T1 construct: purchased Haematologic Technologies Inc
Assay: thrombin protease inhibition assay, chromogenic substrate S-2238
Type: biochemical
Details: 3 nM human thrombin, 125 μM S-2238, 10 min pre-incubation, RT
Description: Compounds described herein can be assayed, by a variety of methods known in the art and described herein, for inhibition of biological activity, e.g., protease activity, of a variety of proteins, e.g., thrombin.
The thrombin activity reported herein (e.g., Table A) was obtained as follows. […] Thrombin was assayed in buffer containing 0.05 M Tris (pH 7.4), 0.015 M NaCl and 0.01% PEG-8000. The final concentration of enzyme used was 3 nM thrombin. […] All assays were performed in 96-well microtiter plates at room temperature (RT). […] Inhibitor IC50 values were determined by adding test compound as ten point, three-fold serial dilutions in buffer solution, as known in the art. The plate was read at 10 minutes after substrate addition. The IC50 was calculated by plotting the percent (%) inhibition against compound concentration and fitting the data to a constrained four parameter sigmoidal curve, as known in the art.

| pIC50 | SMILES |
| --- | --- |
| < 6.00 | O=C(c1cccc2c1OCCO2)n1nc(NCc2ccc(Cl)s2)c(F)c1C1CCOCC1 [Compound 35, N-[(5-chlorothiophen-2-yl)methyl]-1-(2,3-dihydro-1,4-benzodioxine-5-carbonyl)-4-fluoro-5-(oxan-4-yl)-1H-pyrazol-3-amine] |
| > 7.00 | COc1ccccc1C(=O)n1nc(-c2ccccc2)c(F)c1NCc1ccccc1 [Compound 60, N-benzyl-4-fluoro-1-(2-methoxybenzoyl)-3-phenyl-1H-pyrazol-5-amine] |
| > 7.00 | CC(C)(O)C(=O)n1nc(-c2ccccc2)c(F)c1NCc1ccc(Cl)s1 [Compound 11, 1-(5-[(5-chlorothiophen-2-yl)methyl]amino-4-fluoro-3-phenyl-1H-pyrazol-1-yl)-2-hydroxy-2-methylpropan-1-one] |
| 6.00 to 7.00 | CN(C)c1cccc2c(S(=O)(=O)Oc3ccccc3C(=O)n3nc(-c4ccccc4)c(F)c3NCc3ccc(Cl)s3)cccc12 [Compound 26, 2-(5-[(5-chlorothiophen-2-yl)methyl]amino-4-fluoro-3-phenyl-1H-pyrazole-1-carbonyl)phenyl 5-(dimethylamino)naphthalene-1-sulfonate] |
| > 7.00 | CN(C)c1cccc2c(S(=O)(=O)Nc3ccc(C(=O)n4nc(C5CCNCC5)c(F)c4NCc4ccc(Cl)s4)cc3)cccc12 [Compound 57, N-[4-(5-[(5-chlorothiophen-2-yl)methyl]amino-4-fluoro-3-(piperidin-4-yl)-1H-pyrazole-1-carbonyl)phenyl]-5-(dimethylamino)naphthalene-1-sulfonamide] |
| > 7.00 | COCCOCC(C)(C)C(=O)n1nc(-c2ccccc2)c(F)c1NCc1ccc(Cl)s1 [Compound 13, 1-(5-[(5-chlorothiophen-2-yl)methyl]amino-4-fluoro-3-phenyl-1H-pyrazol-1-yl)-3-(2-methoxyethoxy)-2,2-dimethylpropan-1-one] |
| < 6.00 | COc1ccccc1C(=O)n1nc(NCc2ccc(Cl)s2)c(F)c1C1CCN(S(=O)(=O)c2cccc3c(N(C)C)cccc23)CC1 [Compound 55, N-[(5-chlorothiophen-2-yl)methyl]-5-(1-[5-(dimethylamino)naphthalen-1-yl]sulfonylpiperidin-4-yl)-4-fluoro-1-(2-methoxybenzoyl)-1H-pyrazol-3-amine] |
| > 7.00 | CN(C)c1cccc2c(S(=O)(=O)Nc3ccc(C(=O)n4nc(-c5ccccc5)c(F)c4NCc4ccc(Cl)s4)cc3)cccc12 [Compound 58, N-[4-(5-[(5-chlorothiophen-2-yl)methyl]amino-4-fluoro-3-phenyl-1H-pyrazole-1-carbonyl)phenyl]-5-(dimethylamino)naphthalene-1-sulfonamide] |
| > 7.00 | COCC(C)(C)C(=O)n1nc(-c2ccccc2)c(F)c1NCc1ccc(Cl)s1 [Compound 15, 1-(5-[(5-chlorothiophen-2-yl)methyl]amino-4-fluoro-3-phenyl-1H-pyrazol-1-yl)-3-methoxy-2,2-dimethylpropan-1-one] |
| > 7.00 | O=C(n1nc(-c2ccccc2)c(F)c1NCc1ccc(Cl)s1)C1(CO)CC1 [Compound 62, [1-(5-[(5-chlorothiophen-2-yl)methyl]amino-4-fluoro-3-phenyl-1H-pyrazole-1-carbonyl)cyclopropyl]methanol] |
| < 6.00 | COc1ccccc1C(=O)N(Cc1ccc(Cl)s1)c1[nH]nc(-c2ccc3c(c2)CCCC3=O)c1F [Compound 56, N-[(5-chlorothiophen-2-yl)methyl]-N-[4-fluoro-3-(5-oxo-5,6,7,8-tetrahydronaphthalen-2-yl)-1H-pyrazol-5-yl]-2-methoxybenzamide] |
| > 7.00 | CC(C)(CO)C(=O)n1nc(-c2ccccc2)c(F)c1NCc1ccc(Cl)s1 [Compound 14, 1-(5-[(5-chlorothiophen-2-yl)methyl]amino-4-fluoro-3-phenyl-1H-pyrazol-1-yl)-3-hydroxy-2,2-dimethylpropan-1-one] |
| < 6.00 | O=C1CCCN1c1ccc(-c2nn(C(=O)c3ccoc3)c(NCc3ccc(Cl)s3)c2F)cc1 [Compound 20, 1-[4-(5-[(5-chlorothiophen-2-yl)methyl]amino-4-fluoro-1-(furan-3-carbonyl)-1H-pyrazol-3-yl)phenyl]pyrrolidin-2-one] |
| < 6.00 | O=C(c1ccccc1)n1nc(NCc2ccc(Cl)s2)c(F)c1C1CCOCC1 [Compound 25, 1-benzoyl-N-[(5-chlorothiophen-2-yl)methyl]-4-fluoro-5-(oxan-4-yl)-1H-pyrazol-3-amine] |
| > 7.00 | COC(C)(C)C(=O)n1nc(C2CCNCC2)c(F)c1NCc1ccc(Cl)s1 [Compound 7, 1-(5-[(5-chlorothiophen-2-yl)methyl]amino-4-fluoro-3-(piperidin-4-yl)-1H-pyrazol-1-yl)-2-methoxy-2-methylpropan-1-one] |
| > 7.00 | O=C(n1nc(C2CCOCC2)c(F)c1NCc1ccc(Cl)s1)C1(CO)CC1 [Compound 61, [1-(5-[(5-chlorothiophen-2-yl)methyl]amino-4-fluoro-3-(oxan-4-yl)-1H-pyrazole-1-carbonyl)cyclopropyl]methanol] |

| pIC50 | SMILES |
| --- | --- |
| < 6.00 | COc1ccccc1C(=O)n1nc(-c2ccc3c(c2)CCCC3O)c(F)c1NCc1ccc(Cl)s1 (centres unmarked) [Compound 30, 6-(5-[(5-chlorothiophen-2-yl)methyl]amino-4-fluoro-1-(2-methoxybenzoyl)-1H-pyrazol-3-yl)-1,2,3,4-tetrahydronaphthalen-1-ol] |
| > 7.00 | COC(C)(C)C(=O)n1nc(-c2ccccc2)c(F)c1NCc1ccc(Cl)s1 [Compound 12, 1-(5-[(5-chlorothiophen-2-yl)methyl]amino-4-fluoro-3-phenyl-1H-pyrazol-1-yl)-2-methoxy-2-methylpropan-1-one] |
| > 7.00 | CC(C)(C)C(=O)n1nc(-c2ccc3c(c2)CCCC3=O)c(F)c1NCc1ccc(Cl)s1 [Compound 29, 6-(5-[(5-chlorothiophen-2-yl)methyl]amino-1-(2,2-dimethylpropanoyl)-4-fluoro-1H-pyrazol-3-yl)-1,2,3,4-tetrahydronaphthalen-1-one] |
| > 7.00 | COc1ccccc1C(=O)n1nc(-c2ccccn2)c(F)c1NCc1ccccc1 [Compound 59, N-benzyl-4-fluoro-1-(2-methoxybenzoyl)-3-(pyridin-2-yl)-1H-pyrazol-5-amine] |
| > 7.00 | O=C(c1ccoc1)n1nc(-c2ccccc2)c(F)c1NCc1ccc(Cl)s1 [Compound 51, N-[(5-chlorothiophen-2-yl)methyl]-4-fluoro-1-(furan-3-carbonyl)-3-phenyl-1H-pyrazol-5-amine] |
| > 7.00 | COc1ccc(C(=O)n2nc(C3CCNCC3)c(F)c2NCc2ccc(Cl)s2)c(OC)c1 [Compound 37, N-[(5-chlorothiophen-2-yl)methyl]-1-(2,4-dimethoxybenzoyl)-4-fluoro-3-(piperidin-4-yl)-1H-pyrazol-5-amine] |
| > 7.00 | CC(C)(C)C(=O)n1nc(-c2ccccc2)c(F)c1NCc1ccccc1 [Compound 23, 1-[5-(benzylamino)-4-fluoro-3-phenyl-1H-pyrazol-1-yl]-2,2-dimethylpropan-1-one] |
| < 6.00 | CC1(C(=O)n2nc(-c3ccccc3)c(F)c2NCc2ccc(Cl)s2)COC1 [Compound 46, N-[(5-chlorothiophen-2-yl)methyl]-4-fluoro-1-(3-methyloxetane-3-carbonyl)-3-phenyl-1H-pyrazol-5-amine] |
| > 7.00 | COCCOc1ccc(C(=O)n2nc(C3CCOCC3)c(F)c2NCc2ccc(Cl)s2)cc1 [Compound 52, N-[(5-chlorothiophen-2-yl)methyl]-4-fluoro-1-[4-(2-methoxyethoxy)benzoyl]-3-(oxan-4-yl)-1H-pyrazol-5-amine] |
| > 7.00 | COc1ccc(C(=O)n2nc(C3CCOCC3)c(F)c2NCc2ccc(Cl)s2)c(OC)c1 [Compound 36, N-[(5-chlorothiophen-2-yl)methyl]-1-(2,4-dimethoxybenzoyl)-4-fluoro-3-(oxan-4-yl)-1H-pyrazol-5-amine] |
| > 7.00 | CN(C)c1cccc2c(S(=O)(=O)N3CCC(c4nn(C(=O)C(C)(C)CO)c(NCc5ccc(Cl)s5)c4F)CC3)cccc12 [Compound 1, 1-(5-[(5-chlorothiophen-2-yl)methyl]amino-3-(1-[5-(dimethylamino)naphthalen-1-yl]sulfonylpiperidin-4-yl)-4-fluoro-1H-pyrazol-1-yl)-3-hydroxy-2,2-dimethylpropan-1-one] |
| > 7.00 | CC1(C(=O)n2nc(-c3ccccc3)c(F)c2NCc2ccc(Cl)s2)CCOCC1 [Compound 48, N-[(5-chlorothiophen-2-yl)methyl]-4-fluoro-1-(4-methyloxane-4-carbonyl)-3-phenyl-1H-pyrazol-5-amine] |
| > 7.00 | O=C(c1cccc2c1OCCO2)n1nc(C2CCOCC2)c(F)c1NCc1ccc(Cl)s1 [Compound 32, N-[(5-chlorothiophen-2-yl)methyl]-1-(2,3-dihydro-1,4-benzodioxine-5-carbonyl)-4-fluoro-3-(oxan-4-yl)-1H-pyrazol-5-amine] |
| > 7.00 | CC(C)(C)C(=O)n1nc(-c2ccccc2)c(F)c1NCc1ccc(Cl)s1 [Compound 10, 1-(5-[(5-chlorothiophen-2-yl)methyl]amino-4-fluoro-3-phenyl-1H-pyrazol-1-yl)-2,2-dimethylpropan-1-one] |
| > 7.00 | O=C(c1ccccc1)n1nc(C2CCOCC2)c(F)c1NCc1ccc(Cl)s1 [Compound 24, 1-benzoyl-N-[(5-chlorothiophen-2-yl)methyl]-4-fluoro-3-(oxan-4-yl)-1H-pyrazol-5-amine] |
| < 6.00 | COc1ccccc1C(=O)n1nc(C2CCN(S(=O)(=O)c3cccc4c(N(C)C)cccc34)CC2)c(F)c1NCc1ccc(Cl)s1 [Compound 40, N-[(5-chlorothiophen-2-yl)methyl]-3-(1-[5-(dimethylamino)naphthalen-1-yl]sulfonylpiperidin-4-yl)-4-fluoro-1-(2-methoxybenzoyl)-1H-pyrazol-5-amine] |
